{"source": "patent US6720184B1", "about": "“Method of altering sphingolipid metabolism and detecting fumonisin ingestion and contamination” (Emory University, priority 1991, dated 2004)", "key": {"[1]": {"system": "rat hepatocytes", "assay": "hepatocyte viability (trypan blue exclusion)", "type": "cell-based", "details": "1 μM, 4 d"}, "[2]": {"system": "rat hepatocytes", "assay": "mass measurements of phospholipids, total sphingolipids and free long-chain bases in hepatocytes", "type": "cell-based", "details": "for Mass Phosphatidylcholine / Mass Phosphatidylethanolamine / Mass Phosphatidylserine / Mass Total sphingolipids: 16 h", "description": "Mass measurements of the long-chain bases were conducted by HPLC, as is known in the art as previously described in (28), with C20-sphinganine as an internal standard. To quantitate total sphingolipids, the extracts were acid hydrolyzed before preparing the samples for HPLC and corrected, if necessary, for any losses during hydrolysis or extraction by spiking replicate samples with a known amount of ceramide or sphingomyelin."}, "[3]": {"system": "serum sphingolipids", "assay": "free long-chain bases in sera of ponies fed fumonisin-contaminated feed", "type": "in vivo, pony", "details": "for serum sphinganine / serum sphingosine: pony 341, 22 ppm", "description": "Materials—Corn screenings were ground in a Romer Mill (Romer Labs, Chesterfield, Mo.) and mixed thoroughly. Samples were taken from each lot and analyzed for fumonisins by high-performance liquid chromatography (HPLC) and thin-layer chromatography as is known in the art as previously described in (15). […] Using the mean fumonisin B1 level, individual rations were prepared daily by adding the corn screenings to pellets (NADC Horse Ration, Code 560, Purina Mills, St. Louis, Mo.) and molasses (Promolas Easy Mixer supreme, Pacific Molasses Co., San Francisco, Calif.) to yield the fumonisin concentrations cited in the text. In general, the ration contained 60% pellets, 10% molasses, and 30% corn screenings. The control diet consisted of pellets plus molasses.\nFeeding protocols—Clinically normal ponies of varying age and sex were conditioned on the control diet for 21 days prior to the trial. Horse 341 was a 6 year old gelding (173-193 Kg), 299 was a 12 year old mare (205-215 Kg), 164 was a 12 year old mare (206-290 Kg) and 166 was a 16 year old mare (143-164 Kg). During the conditioning period and throughout the trial, all ponies received alfalfa hay by free choice. The test groups were fed varying levels of fumonisin (15 to 44 ppm) for varying lengths of time.\nAnalysis of serum long-chain bases—Blood was drawn approximately twice a week, centrifuged to obtain serum, and aliquots were frozen for analyses of free sphingosine and sphinganine by HPLC as is known in the art as described in (28). To quantitate total sphingolipids in some samples, the extracts were acid hydrolyzed before preparing the samples for HPLC."}, "[4]": {"system": "de novo sphingolipid biosynthesis", "assay": "de novo sphingosine biosynthesis from [14C]serine in hepatocytes", "description": "Hepatocyte culture—Hepatocytes were prepared by a collagenase perfusion method, as known in the art as described in (22), from male Sprague-Dawley rats (125 to 200 g) fed a chow diet (Ralston Purina, St. Louis, Mo.) ad libitum. The hepatocytes were isolated using carefully aseptic procedures and plated in 60 mm tissue culture dishes coated with collagen for short term (<24 h) or with Matrigel for longer term (3 to 4 d) experiments. After plating for 4 h, the medium was changed to 2 ml of DMEM (with 3.7 g/L NaHCO3) containing 10 μg/ml f insulin, 6.1 g/L of penicillin, 10 g/L of streptomycin sulfate, and varying concentrations of fumonisins (added from a 1 mM solution in Delbecco's phosphate buffered saline). The cells were maintained in a tissue culture incubator at 37° C. and an atmosphere of 5% CO2; the medium was changed every 24 h.\nLipid analyses—The de novo biosynthesis of sphingosine was measured, as known in the art as described in (23,24). Briefly, cells that had been exposed to fumonisins for 0 to 4 d were changed to new medium containing 10 μCi of [^14C]serine (25 mCi/mmol) in 2 ml of serine-free DMEM (Gibco) in the presence or absence of fumonisin. After incubation for 2 or 16 h, they were scraped from the dishes, 25 μg of carrier sphingosine and sphinganine were added, and the lipids were extracted and acid hydrolyzed to liberate the free long-chain bases using conditions that give optimal hydrolysis with minimal decomposition of the labile long-chain bases, as known in the art as described in (23-25). The sphinganine and sphingosine were separated by thin-layer chromatography on silica gel H (Brinkman) plates developed with CHCl,:methanol:2 N NH4OH (40:10:1, v/v/v) and the radiolabelling profile (shown in FIG. 2) was determined by radiometric scanning of the plates with a Bioscan System 200 Imaging Scanner. […] The appropriate regions of the chromatoplate were scraped, placed in scintillation vials, and 0.2 ml of water and 4 ml of a detergent based scintillation cocktail were added. After several hours, the samples were counted with the appropriate corrections for quenching."}, "[5]": {"system": "ceramide synthase", "assay": "in vitro assay of ceramide synthase, rat liver microsomes", "type": "biochemical", "details": "inhibition may be biphasic (FIG. 5), read-out: apparent IC50 for inhibition of ceramide synthase in vitro", "description": "In vitro assays of serine palmitoyltransferase and ceramide synthase. A microsomal fraction was isolated from rat liver and assayed for serine palmitoyltransferase, as is known in the art as described in (24,29), and ceramide synthase, as is known in the art as described in (30), in the presence of varying concentrations of fumonisin B1. […] The reaction was initiated by adding palmitoyl-CoA and, after incubation at 37° C. for 15 min, the products were extracted, resolved by TLC, and quantitated as described above. Background counts were subtracted using data from identical assays that omitted palmitoyl-CoA."}, "[6]": {"details": "pony #212, initially 44 ppm, by 7 days"}}, "note": "“And” between values parts separate entries of the source, which are not always exact repeats. Identical values can stand only once."}
{"compound": "CCCC[C@@H](C)[C@@H](OC(=O)C[C@@H](CC(=O)O)C(=O)O)[C@H](C[C@@H](C)C[C@H](O)CCCC[C@@H](O)C[C@H](O)[C@H](C)N)OC(=O)C[C@@H](CC(=O)O)C(=O)O", "note": "[fumonisin B1]", "values": [{"measurement": "number of viable cells", "setting": "[1]", "result": "no decrease"}, {"measurement": "Mass Phosphatidylcholine", "setting": "[2]; 1 μM", "result": "105 ± 1.8", "unit": "nmol/mg protein"}, {"measurement": "Mass Phosphatidylethanolamine", "setting": "[2]; 1 μM", "result": "44.9 ± 1.4", "unit": "nmol/mg protein"}, {"measurement": "Mass Phosphatidylserine", "setting": "[2]; 1 μM", "result": "15.5 ± 2.6", "unit": "nmol/mg protein"}, {"measurement": "Mass Total sphingolipids", "setting": "[2]; 1 μM", "result": "6.7 ± 0.3", "unit": "nmol/mg protein"}, {"measurement": "fold increase of sphinganine versus control", "setting": "[2]; 1 μM, 4 d", "result": 110, "unit": "fold"}, {"measurement": "free sphingosine", "setting": "[2]; 1 μM, 4 d", "result": "52±1", "unit": "pmol/dish"}, {"measurement": "mass of free sphinganine", "setting": "[2]; 1 μM, 4 d", "result": "1499±18", "unit": "pmol/dish"}, {"measurement": "level of total sphingolipids", "setting": "[2]; 1 μM, 4 d, cells on Matrigel", "result": "2.1±0.1", "unit": "nmol/dish"}, {"measurement": "reduction of level of total sphingolipids", "setting": "[2]; 1 μM, 4 d, cells on Matrigel", "result": "about half"}, {"measurement": "Mass Phosphatidylcholine", "setting": "[2]; 10 μM", "result": "112 ± 3.4", "unit": "nmol/mg protein"}, {"measurement": "Mass Phosphatidylethanolamine", "setting": "[2]; 10 μM", "result": "44.4 ± 0.9", "unit": "nmol/mg protein"}, {"measurement": "Mass Phosphatidylserine", "setting": "[2]; 10 μM", "result": "12.3 ± 1.9", "unit": "nmol/mg protein"}, {"measurement": "Mass Total sphingolipids", "setting": "[2]; 10 μM", "result": "6.5 ± 0.7", "unit": "nmol/mg protein"}, {"measurement": "amount of free sphingosine", "setting": "[2]; within the first 2 h (FIG. 4B)", "result": "only a small reduction"}, {"measurement": "Ratio Sa/So", "setting": "[3]; Pony #164, feed 44 ppm, day 2", "result": 0.60}, {"measurement": "Sphinganine, free, serum", "setting": "[3]; Pony #164, feed 44 ppm, day 2", "result": "70.2 ± 4.2", "unit": "pmol/mL"}, {"measurement": "Sphingosine, free, serum", "setting": "[3]; Pony #164, feed 44 ppm, day 2", "result": "117 ± 7", "unit": "pmol/mL"}, {"measurement": "Ratio Sa/So", "setting": "[3]; Pony #164, feed 44 ppm, day 7", "result": 1.67}, {"measurement": "Sphinganine, free, serum", "setting": "[3]; Pony #164, feed 44 ppm, day 7", "result": "253 ± 22", "unit": "pmol/mL"}, {"measurement": "Sphingosine, free, serum", "setting": "[3]; Pony #164, feed 44 ppm, day 7", "result": "152 ± 13", "unit": "pmol/mL"}, {"measurement": "Ratio Sa/So", "setting": "[3]; Pony #164, feed 44 ppm, day 10", "result": 1.25}, {"measurement": "Sphinganine, free, serum", "setting": "[3]; Pony #164, feed 44 ppm, day 10", "result": "283 ± 18", "unit": "pmol/mL"}, {"measurement": "Sphingosine, free, serum", "setting": "[3]; Pony #164, feed 44 ppm, day 10", "result": "226 ± 20", "unit": "pmol/mL"}, {"measurement": "Ratio Sa/So", "setting": "[3]; Pony #166, feed 44 ppm, day 2", "result": 0.87}, {"measurement": "Sphinganine, free, serum", "setting": "[3]; Pony #166, feed 44 ppm, day 2", "result": "37.2 ± 0.2", "unit": "pmol/mL"}, {"measurement": "Sphingosine, free, serum", "setting": "[3]; Pony #166, feed 44 ppm, day 2", "result": "43 ± 6", "unit": "pmol/mL"}, {"measurement": "Ratio Sa/So", "setting": "[3]; Pony #166, feed 44 ppm, day 7", "result": 0.95}, {"measurement": "Sphinganine, free, serum", "setting": "[3]; Pony #166, feed 44 ppm, day 7", "result": "62 ± 8", "unit": "pmol/mL"}, {"measurement": "Sphingosine, free, serum", "setting": "[3]; Pony #166, feed 44 ppm, day 7", "result": "66 ± 16", "unit": "pmol/mL"}, {"measurement": "Ratio Sa/So", "setting": "[3]; Pony #166, feed 44 ppm, day 10", "result": 1.92}, {"measurement": "Sphinganine, free, serum", "setting": "[3]; Pony #166, feed 44 ppm, day 10", "result": "179 ± 8", "unit": "pmol/mL"}, {"measurement": "Sphingosine, free, serum", "setting": "[3]; Pony #166, feed 44 ppm, day 10", "result": "92 ± 4", "unit": "pmol/mL"}, {"measurement": "Ratio Sa/So", "setting": "[3]; Pony #166, feed 44 ppm, day 13", "result": 1.72}, {"measurement": "Sphinganine, free, serum", "setting": "[3]; Pony #166, feed 44 ppm, day 13", "result": "174 ± 18", "unit": "pmol/mL"}, {"measurement": "Sphingosine, free, serum", "setting": "[3]; Pony #166, feed 44 ppm, day 13", "result": "100 ± 8", "unit": "pmol/mL"}, {"measurement": "increase in serum sphinganine versus level immediately prior to feeding", "setting": "[3]; pony 164, 44 ppm, day 2", "result": 6, "unit": "fold"}, {"measurement": "ratio of sphinganine to sphingosine versus pre-feeding", "setting": "[3]; pony 164, 44 ppm, day 2", "result": "doubled"}, {"measurement": "increase in serum sphinganine versus initial level", "setting": "[3]; pony 164, 44 ppm, day 7", "result": 22, "unit": "fold"}, {"measurement": "serum sphingosine versus initial level", "setting": "[3]; pony 164, 44 ppm, day 7", "result": 3.6, "unit": "fold"}, {"measurement": "increase in serum sphinganine", "setting": "[3]; pony 166, 44 ppm, day 2", "result": 2.7, "unit": "fold"}, {"measurement": "elevation in serum sphinganine", "setting": "[3]; pony 166, 44 ppm, day 10", "result": 13, "unit": "fold"}, {"measurement": "elevation in serum sphingosine", "setting": "[3]; pony 166, 44 ppm, day 10", "result": 2, "unit": "fold"}, {"measurement": "serum sphinganine", "setting": "[3]; day 231", "result": 256, "unit": "pmol/mL"}, {"measurement": "serum sphingosine", "setting": "[3]; day 231", "result": 163, "unit": "pmol/mL"}, {"measurement": "serum sphinganine", "setting": "[3]; day 235", "result": 532, "unit": "pmol/mL"}, {"measurement": "serum sphingosine", "setting": "[3]; day 235", "result": 418, "unit": "pmol/mL"}, {"measurement": "sphinganine to sphingosine ratio", "setting": "[3]; pony 341, reintroduction of 22 ppm on day 182", "result": "> 1.5"}, {"measurement": "further increase of serum sphingosine versus day 2", "setting": "[3]; [6]", "result": 2, "unit": "fold"}, {"measurement": "serum sphinganine versus level at day 2", "setting": "[3]; [6]", "result": 6.7, "unit": "fold"}, {"measurement": "sphinganine exceeding level of sphingosine", "setting": "[3]; [6]", "result": 1.9, "unit": "fold"}, {"measurement": "serum sphingosine level", "setting": "[3]; pony #212, initially 44 ppm, within 2 days", "result": "147 ± 5", "unit": "pmol"}, {"measurement": "ratio of sphinganine to sphingosine", "setting": "[3]; pony #341, 15 ppm, first 130 days", "result": "fairly consistent elevation over the initial value"}, {"measurement": "inhibition of [14C]sphingosine formation by hepatocytes", "setting": "[4]; 1 μM", "result": "almost complete inhibition"}, {"measurement": "de novo sphingolipid biosynthesis", "setting": "[4]; 10 μM", "result": "completely blocked"}, {"measurement": "amount of radiolabel in [14C]sphinganine", "setting": "[4]; hepatocytes treated (FIG. 4A)", "result": "increased"}, {"measurement": "IC50", "setting": "[4]; read-out: IC50 for inhibition of [14C]serine incorporation into [14C]sphingosine, rat hepatocytes, 2 h incubation (FIG. 3B)", "result": "~100 nM and 100 nM"}, {"measurement": "IC50", "setting": "[5]", "result": "~100", "unit": "nM"}]}
